Test results as given in US20090042883A1, “ANTITUMOR AGENT” (KYOWA HAKKOKOGYO CO., priority 2005, published 2009).

How the values were obtained:
Assay type in all cases: cell-based
[1] = tested on: human prostate cancer 22Rv1 cells; assay: Growth inhibition test on human prostate cancer 22Rv1 cells (WST-1, % viability); details: test compound 10 μmol/L, 72 hours, cells without test compound = 100%
Protocol: (§1) Five thousand cells of human prostate cancer 22Rv1 were inoculated into each well of a 96-well microplate (manufactured by Nunc Corp.), and using RPMI1640 medium (culture medium) containing 10% FCS, preculturing was performed in a 5% carbon dioxide incubator at 37° C. for 24 hours. A DMSO solution of each test compound prepared in a concentration of 10 mmol/L was diluted with the culture medium to a final concentration of 10 μmol/L, and the diluted solution was added to each well. The individual wells were further cultured in the 5% carbon dioxide incubator at 37° C. for 72 hours. After completion of the culturing, 10 μL of WST-1 labeled mixture (manufactured by Roche Diagnostic Corp.) was added to each well, and culturing was performed in the 5% carbon dioxide incubator at 37° C. for 2 hours. Using a microplate spectrophotometer (Model 550; manufactured by Bio-Rad), the absorbance of each well was measured at 450 nm and 655 nm. The value obtained by subtracting the absorbance at 450 nm from the absorbance at 655 nm (absorbance difference) was calculated for each well. The value for cells not incorporated with a test compound was designated as 100%, and the value at a well not containing cells was designated as 0%. By comparing these values with the absorbance difference obtained at the well in which each test compound was added, the cell viability (% viability) after treatment with the test compound was calculated.

[2] = tested on: human chronic lymphocytic leukemia-derived MEC-1 cells; assay: Growth inhibition test on human chronic lymphocytic leukemia-derived MEC-1 cells (WST-1, % viability); details: test compound 10 μmol/L, 72 hours, cells without test compound = 100%
Protocol: as §1, with “Ten thousand” for “Five thousand”, “human chronic lymphocytic leukemia-derived MEC-1” for “human prostate cancer 22Rv1”, “for 1 hour.” for “for 24 hours.”, “for 3” for “for 2”, “spectrophotometer (M-SPmax 250;” for “spectrophotometer (Model 550;”, “by Molecular Devices Corp.),” for “by Bio-Rad),”

[3] = tested on: human lung cancer NCI-H596 cells; assay: Growth inhibition test on human lung cancer NCI-H596 cells (WST-1, % viability); details: test compound 10 μmol/L, cells without test compound = 100%
Protocol: as §1, with “Four” for “Five”, “lung” for “prostate”, “NCI-H596” for “22Rv1”

[4] = tested on: human multiple myeloma NCI-H929 cells; assay: Growth inhibition test on human multiple myeloma NCI-H929 cells (WST-1, % viability); details: test compound 10 μmol/L, cells without test compound = 100%
Protocol: as §1, with “Ten” for “Five”, “multiple myeloma NCI-H929” for “prostate cancer 22Rv1”, “RPMI” for “RPMI1640”, “(SpectraMax 340PC384;” for “(Model 550;”, “Nihon Molecular Devices),” for “Bio-Rad),”

[5] = tested on: human renal cancer OS-RC-2 cells; assay: Growth inhibition test on human renal cancer OS-RC-2 cells (WST-1, % viability); details: test compound 10 μmol/L, 72 hours, cells without test compound = 100%
Protocol: as §1, with “One” for “Five”, “renal” for “prostate”, “OS-RC-2” for “22Rv1”

Structure (SMILES) | Viability of tumor cells (% viability), Human prostate cancer 22Rv1 cells [1] [%] | Viability of tumor cells (% viability), Human chronic lymphocytic leukemia MEC-1 cells [2] [%] | Viability of tumor cells (% viability), Human lung cancer NCI-H596 cells [3] [%] | Viability of tumor cells (% viability), Human multiple myeloma NCI-H929 cells [4] [%] | Viability of tumor cells (% viability), Human renal cancer OS-RC-2 cells [5] [%]
CCc1c(O)cc(O)c(C(=O)c2ccc(SC)cc2)c1CC(=O)N(CCO)CCOC [Compound 95] | 5 | 4 | 14 | 0 | 18
CCc1c(O)cc(O)c(C(=O)c2ccc(OC(F)F)cc2)c1CC(=O)N(CCO)CCOC [Compound 91] | 5 | 4 | 14 | 0 | 17
CCc1c(O)cc(O)c(C(=O)c2ccc(OC)cc2)c1CC(=O)N1CCN(c2ncccn2)CC1 [Compound 32] | 5 | 4 | 15 | 0 | 17
CCc1c(O)cc(O)c(C(=O)c2ccc(OC(F)(F)F)cc2)c1CC(=O)N(CCO)CCOC [Compound 88] | 6 | 5 | 14 | 0 | 17
CCc1c(O)cc(O)c(C(=O)c2ccc(OC)c(OC)c2)c1CC(=O)N1CCN(c2ccccc2)CC1 [Compound 41] | 5 | 4 | 12 | 0 | 18
CCc1c(O)cc(O)c(C(=O)c2ccc(OC(C)C)cc2)c1CC(=O)N(CCOC)CCN1CCOCC1 [Compound 134] | 6 | 6 | 17 | 0 | 21
CCc1c(O)cc(O)c(C(=O)c2ccc(OC)cc2)c1CC(=O)N(C)Cc1cccnc1 [Compound 16] | 5 | 3 | 19 | 0 | 17
CCc1c(O)cc(O)c(C(=O)c2ccc(OC)cc2)c1CC(=O)N(CCO)CCOC [Compound 33] | 5 | 4 | 20 | 0 | 18
CCc1c(O)cc(O)c(C(=O)c2ccc(OC)cc2)c1CC(=O)N1CCc2cc(OC)c(OC)cc2C1 [Compound 38] | 4 | 4 | 15 | 0 | 18
CCc1c(O)cc(O)c(C(=O)c2ccc(OC)cc2)c1CC(=O)N1CCC(CO)CC1 [Compound 61] | 5 | 5 | 25 | 0 | 25
CCc1c(O)cc(O)c(C(=O)c2ccc(S(C)(=O)=O)cc2)c1CC(=O)N(CCOC)CCOC [Compound 107] | 5 | 5 | 16 | 0 | 18
CCc1c(O)cc(O)c(C(=O)c2ccc(OCCCN3CCOCC3)c(OC)c2)c1CC(=O)N(CCOC)CCOC [Compound 149] | 4 | 5 | 14 | 0 | 20
